Measured values reported in patent US6472348B1, “Pyridone derivatives and herbicides” (Kumiai Chemical Industry Co., Ltd., priority 1996, dated 2002).

Assays:
Assay type in all cases: in vivo
barnyardgrass (Ec) = test: Test Example 2: herbicidal effects by upland field soil treatment; conditions: 100 g of the active ingredient per 10 ares;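 note: grade of growth control; 5 = at least 90%; 4 = 70 to 90%; 3 = 50 to 70%; 2 = 30 to 50%; 1 = 10 to 30%; 0 = under 10%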
Text: (§1) (Test on Herbicidal Effects by Upland Field Soil Treatment)

[1] = system: common lambsquarters (Ch); test: as above; conditions: 100 g of the active ingredient per 10 ares;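 note: grade of growth control; 5 = at least 90%; 4 = 70 to 90%; 3 = 50 to 70%; 2 = 30 to 50%; 1 = 10 to 30%; 0 = under 10%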
Text: as §1

slender amaranth (Am) [2] = test: as above; conditions: 100 g of the active ingredient per 10 ares
Text: as §1

pale smartweed (Po) = test: as above; conditions: 100 g of the active ingredient per 10 ares;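 note: grade of growth control; 5 = at least 90%; 4 = 70 to 90%; 3 = 50 to 70%; 2 = 30 to 50%; 1 = 10 to 30%; 0 = under 10%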
Text: as §1

rice flatsedge (Ci) = test: as above; conditions: 100 g of the active ingredient per 10 ares;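 note: grade of growth control; 5 = at least 90%; 4 = 70 to 90%; 3 = 50 to 70%; 2 = 30 to 50%; 1 = 10 to 30%; 0 = under 10%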
Text: as §1

Digitaria ciliaris (Di) = test: as above; conditions: 100 g of the active ingredient per 10 ares
Text: as §1

corn (Ze) = test: Test Example 7: crop plant selectivity by upland field soil treatment (corn), phytotoxicity; parameters: scale not given here; conditions: 21st day after application
Procedure, shortened: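 Values are ratings of herbicidal effect and phytotoxicity on a standard scale, taken 21 days after application. Test species were sown together with corn in sand-filled pots, covered with soil, and grown in a greenhouse.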

green foxtail (Se) = test: Test Example 4: crop plant selectivity by upland field soil treatment (cotton), herbicidal effects; parameters: scale not given here; conditions: evaluated 21st day after application
Procedure, shortened: (§2)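 Cotton and weeds (incl. China jute, pale smartweed, slender amaranth) sown in sand-filled pots and covered with soil, then soil-treated. Grown in greenhouse; herbicidal effect and cotton phytotoxicity scored on day 21 after application against a rating standard.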

slender amaranth (Am) [3] = test: as above; parameters: scale not given here; conditions: evaluated 21st day after application
Procedure, shortened: as §2

China jute (Ab) = test: as above; parameters: scale not given here; conditions: evaluated 21st day after application
Procedure, shortened: as §2

[4] = 21st day after the application, index 0-5 of Table 47
[5] = evaluated on the 21st day after application

C#CCSc1cc(-c2ccc(C(F)(F)F)n(C)c2=O)c(F)cc1Cl [1-44]
Herbicidal effects Ec (barnyardgrass (Ec); [4]): 5
Herbicidal effects Ch [1, 4]: 5
Herbicidal effects Am (slender amaranth (Am) [2]; [4]): 5
Herbicidal effects Po (pale smartweed (Po); [4]): 5
Herbicidal effects Ci (rice flatsedge (Ci); [4]): 5
Herbicidal effects Di (Digitaria ciliaris (Di); [4]): 5
Phytotoxicity Ze (corn (Ze); dose 6.3 g ai/10a): 1
Herbicidal effects Se (green foxtail (Se); dose 6.3 g ai/10 a): 5
Herbicidal effects Am (slender amaranth (Am) [3]; dose 6.3 g ai/10 a): 5
Herbicidal effects Ab (China jute (Ab); dose 6.3 g ai/10 a): 5

CCOC(=O)c1cc(-c2ccc(C(F)(F)F)n(C)c2=O)c(F)cc1Cl [1-65]
Herbicidal effects Ec (barnyardgrass (Ec); [4]): 5
Herbicidal effects Ch [1, 4]: 5
Herbicidal effects Am (slender amaranth (Am) [2]; [4]): 5
Herbicidal effects Po (pale smartweed (Po); [4]): 5
Herbicidal effects Ci (rice flatsedge (Ci); [4]): 5
Herbicidal effects Di (Digitaria ciliaris (Di); [4]): 5
Phytotoxicity Ze (corn (Ze); dose 1.6 g ai/10a): 1
Phytotoxicity Ze (corn (Ze); dose 6.3 g ai/10a): 2
Herbicidal effects Se (green foxtail (Se); dose 1.6 g ai/10 a): 5
Herbicidal effects Se (green foxtail (Se); dose 6.3 g ai/10 a): 5
Herbicidal effects Am (slender amaranth (Am) [3]; dose 1.6 g ai/10 a): 5
Herbicidal effects Am (slender amaranth (Am) [3]; dose 6.3 g ai/10 a): 5
Herbicidal effects Ab (China jute (Ab); dose 1.6 g ai/10 a): 5
Herbicidal effects Ab (China jute (Ab); dose 6.3 g ai/10 a): 5

Cc1cc(-c2ccc(C(F)(F)F)n(C)c2=O)c(F)cc1Cl [1-90]
Herbicidal effects Ec (barnyardgrass (Ec); [4]): 5
Herbicidal effects Ch [1, 4]: 5
Herbicidal effects Am (slender amaranth (Am) [2]; [4]): 5
Herbicidal effects Po (pale smartweed (Po); [4]): 5
Herbicidal effects Ci (rice flatsedge (Ci); [4]): 5
Herbicidal effects Di (Digitaria ciliaris (Di); [4]): 5
Phytotoxicity Ze (corn (Ze); dose 1.6 g ai/10a): 1
Phytotoxicity Ze (corn (Ze); dose 6.3 g ai/10a): 2
Herbicidal effects Se (green foxtail (Se); dose 6.3 g ai/10 a): 5
Herbicidal effects Am (slender amaranth (Am) [3]; dose 6.3 g ai/10 a): 5
Herbicidal effects Ab (China jute (Ab); dose 6.3 g ai/10 a): 5

COCSc1cc(-c2ccc(C(F)(F)F)n(C)c2=O)c(F)cc1Cl [1-91]
Herbicidal effects Ec (barnyardgrass (Ec); [4]): 5
Herbicidal effects Ch [1, 4]: 5
Herbicidal effects Am (slender amaranth (Am) [2]; [4]): 5
Herbicidal effects Po (pale smartweed (Po); [4]): 5
Herbicidal effects Ci (rice flatsedge (Ci); [4]): 5
Herbicidal effects Di (Digitaria ciliaris (Di); [4]): 5
Phytotoxicity Ze (corn (Ze); dose 1.6 g ai/10a): 1
Phytotoxicity Ze (corn (Ze); dose 6.3 g ai/10a): 2
Herbicidal effects Se (green foxtail (Se); dose 1.6 g ai/10 a): 5
Herbicidal effects Se (green foxtail (Se); dose 6.3 g ai/10 a): 5
Herbicidal effects Am (slender amaranth (Am) [3]; dose 1.6 g ai/10 a): 5
Herbicidal effects Am (slender amaranth (Am) [3]; dose 6.3 g ai/10 a): 5
Herbicidal effects Ab (China jute (Ab); dose 1.6 g ai/10 a): 5
Herbicidal effects Ab (China jute (Ab); dose 6.3 g ai/10 a): 5

CCOCOc1cc(-c2ccc(C(F)(F)F)n(C)c2=O)c(F)cc1Cl [1-181]
Herbicidal effects Ec (barnyardgrass (Ec); [5]): 5
Herbicidal effects Ch [1, 5]: 5
Herbicidal effects Am (slender amaranth (Am) [2]; [5]): 5
Herbicidal effects Po (pale smartweed (Po); [5]): 5
Herbicidal effects Ci (rice flatsedge (Ci); [5]): 5
Herbicidal effects Di (Digitaria ciliaris (Di); [5]): 5
Herbicidal effects Se (green foxtail (Se); dose 6.3 g ai/10 a): 5
Herbicidal effects Am (slender amaranth (Am) [3]; dose 6.3 g ai/10 a): 5
Herbicidal effects Ab (China jute (Ab); dose 6.3 g ai/10 a): 5

C#CCN1C(=O)COc2cc(F)c(-c3cn(C)c(C(F)(F)F)cc3=O)cc21 [Compound 7-1]
Herbicidal effects Ec (barnyardgrass (Ec); [5]): 5
Herbicidal effects Ch [1, 5]: 5
Herbicidal effects Am (slender amaranth (Am) [2]; [5]): 5
Herbicidal effects Po (pale smartweed (Po); [5]): 5
Herbicidal effects Ci (rice flatsedge (Ci); [5]): 5
Herbicidal effects Di (Digitaria ciliaris (Di); [5]): 5
Herbicidal effects Se (green foxtail (Se); dose 6.3 g ai/10 a): 5
Herbicidal effects Am (slender amaranth (Am) [3]; dose 6.3 g ai/10 a): 5
Herbicidal effects Ab (China jute (Ab); dose 6.3 g ai/10 a): 5

C#CCN1C(=O)COc2cc(F)c(-c3ccc(C(F)(F)F)n(C)c3=O)cc21 [Compound No. 2-1, 3-[7-fluoro-2,3-dihydro-4-(2-propynyl)-1,4-benzoxazin-3-on-6-yl]-1-methyl-6-trifluoromethyl-2(1H)-pyridone]
Herbicidal effects Ec (barnyardgrass (Ec); [5]): 5
Herbicidal effects Ch [1, 5]: 5
Herbicidal effects Am (slender amaranth (Am) [2]; [5]): 5
Herbicidal effects Po (pale smartweed (Po); [5]): 5
Herbicidal effects Ci (rice flatsedge (Ci); [5]): 5
Herbicidal effects Di (Digitaria ciliaris (Di); [5]): 5
Herbicidal effects Se (green foxtail (Se); dose 1.6 g ai/10 a): 5
Herbicidal effects Am (slender amaranth (Am) [3]; dose 1.6 g ai/10 a): 5
Herbicidal effects Ab (China jute (Ab); dose 1.6 g ai/10 a): 5

Cn1cc(-c2cc(Oc3ccccc3)c(Cl)cc2F)c(=O)cc1C(F)(F)F [Compound No. 6-19, 5-(4-chloro-2-fluoro-5-phenoxyphenyl)-1-methyl-2-trifluoromethyl-4(1H)-pyridone]
Herbicidal effects Ec (barnyardgrass (Ec); [5]): 5
Herbicidal effects Ch [1, 5]: 5
Herbicidal effects Am (slender amaranth (Am) [2]; [5]): 5
Herbicidal effects Po (pale smartweed (Po); [5]): 5
Herbicidal effects Ci (rice flatsedge (Ci); [5]): 5
Herbicidal effects Di (Digitaria ciliaris (Di); [5]): 5
Herbicidal effects Se (green foxtail (Se); dose 1.6 g ai/10 a): 5
Herbicidal effects Se (green foxtail (Se); dose 6.3 g ai/10 a): 5
Herbicidal effects Am (slender amaranth (Am) [3]; dose 1.6 g ai/10 a): 5
Herbicidal effects Am (slender amaranth (Am) [3]; dose 6.3 g ai/10 a): 5
Herbicidal effects Ab (China jute (Ab); dose 1.6 g ai/10 a): 3
Herbicidal effects Ab (China jute (Ab); dose 6.3 g ai/10 a): 5
